# Measurements from paper PMC12395308 (ACS Central Science, 2025).
# Assays:
# [1] = Aqueous stability in acidic and basic buffer (HPLC); conditions: post 24 h of incubation; for chemical stability, pH (7.6): percentage of parent remaining: basic buffer
# [2] = system: pyridoxal and pyridoxal-5′-phosphate; assay: Quantification of pyridoxal and pyridoxal-5-phosphate in mice liver; conditions: repeat-dose study; INH 90 mg/kg, 1d 117.5 mg/kg
# [3] = Lipophilicity (logD) by shake flask method
# [4] = Aqueous solubility in Tris HCl buffer (pH 7.4), shake flask method; conditions: 37 °C, pH 7.4, aqueous buffer, thermodynamic from solid
# [5] = Comparative pharmacokinetic analysis after a single intravenous dose
# [6] = Derivatization-based quantification of hydrazine in mice plasma using LC-MS; conditions: for plasma concentration of in vivo released Hz: post 24hrs of 6th dose, repetitive oral dosing for six days; for plasma level of released Hz: single oral dose (10 mg/kg INH or equivalent), all time points 0.083–24 h
# [7] = Comparative plasma exposure after a single oral dose at three incremental dose levels; conditions: for plasma concentration of INH (mean): oral 1mg/Kg; for concentration at 2 h / concentration at 6 h: Balb/C, mouse, plasma, po
# [8] = Complete pharmacokinetic analysis after a single oral dose; conditions: for plasma level of AcHz formed in vivo: all time points 0.083–24 h
# [9] = Chemical stability in neat DMSO (UV spectrophotometer); conditions: post 24 h of incubation
# [10] = Human liver microsomal stability analysis; conditions: for percentage of 1d/INH remaining after 2 h of incubation, human liver microsomes: 50 μM, 1 mg/mL microsomes, 1 mM NADPH
# [11] = In vivo plasma exposure after repetitive single oral dosing for 10 consecutive days; conditions: for eAUC20m–6h (AcHz): 10th dose, oral, molar equivalent of 10 mg/kg INH
# [12] = Stomach homogenate conversion assay; format: in vitro ADME, mice; conditions: 50 μg/mL
# [13] = Mouse liver homogenate conversion assay; format: in vitro ADME
# [14] = Bioconversion of prodrugs in plasma, ex vivo (human); conditions: 200 μg/mL
# [15] = Intestinal homogenate conversion assay; format: in vitro ADME, mice; conditions: 50 μg/mL
# [16] = In vivo plasma exposure after a single oral dose (RACE-PK); conditions: single oral dose 10 mg/kg
# [17] = Bioconversion of prodrugs in plasma, ex vivo (mice); conditions: 200 μg/mL
# [18] = Balb/C, mouse, plasma, iv, 1 mg/kg
# [19] = Balb/C, mouse, plasma, po, 10 mg/kg of INH (prodrugs at molar equivalent)
smiles,measurement,setting,value
"NNC(=O)c1ccncc1 [INH, Isoniazid, reference compound]","chemical stability, pH (3.0): percentage of parent remaining",[1]; acidic buffer,100.0%
same,"chemical stability, pH (7.6): percentage of parent remaining",[1],100.0%
same,liver tissue levels of pyridoxal and pyridoxal-5′-phosphate,[2],comparable
same,logD,[3],-0.8
same,solubility at 24 h,[4],610 mg/mL
same,plasma concentration of released INA (mean),"[5]; single IV dose, 0.33 h",BLQ
same,plasma concentration of released INA (mean),"[5]; single IV dose, 1 h",BLQ
same,plasma concentration of released AcINH (mean),"[5]; single IV dose, 2 h",BLQ
same,plasma concentration of released INA (mean),"[5]; single IV dose, 2 h",BLQ
same,plasma concentration of released AcINH (mean),"[5]; single IV dose, 4 h",BLQ
same,plasma concentration of released INA (mean),"[5]; single IV dose, 4 h",BLQ
same,plasma concentration of released AcINH (mean),"[5]; single IV dose, 6 h",BLQ
same,plasma concentration of released INA (mean),"[5]; single IV dose, 6 h",BLQ
same,plasma concentration of released AcINH (mean),"[5]; single IV dose, 8 h",BLQ
same,plasma concentration of released INA (mean),"[5]; single IV dose, 8 h",BLQ
same,plasma concentration of released AcINH (mean),"[5]; single IV dose, 24 h",BLQ
same,plasma concentration of released INA (mean),"[5]; single IV dose, 24 h",BLQ
same,plasma concentration of in vivo released Hz,[6],BLQ
same,plasma level of released Hz,[6],BLQ
same,plasma concentration of INH (mean),[7]; 2 h,BLQ
same,plasma concentration of INH (mean),[7]; 6 h,BLQ
same,plasma concentration of released INA (mean),"[8]; single oral dose, 4 h",BLQ
same,plasma concentration of free INH (mean),"[8]; single oral dose, 6 h",BLQ
same,plasma concentration of released AcINH (mean),"[8]; single oral dose, 6 h",BLQ
same,plasma concentration of released INA (mean),"[8]; single oral dose, 6 h",BLQ
same,plasma concentration of free INH (mean),"[8]; single oral dose, 24 h",BLQ
same,plasma concentration of released AcINH (mean),"[8]; single oral dose, 24 h",BLQ
same,plasma concentration of released INA (mean),"[8]; single oral dose, 24 h",BLQ
same,plasma level of AcHz formed in vivo,[8]; single oral dose,BLQ
same,"chemical stability, DMSO: percentage of parent remaining",[9],100.0%
same,"percentage of 1d/INH remaining after 2 h of incubation, human liver microsomes",[10],66%
same,eAUC20m–6h (AcHz),[11],BLQ ^d
same,feed intake per cage,"[11]; day 0, cage of n=3",9 g
same,feed intake per cage,"[11]; day 1, cage of n=3",13 g
same,feed intake per cage,"[11]; day 2, cage of n=3",11 g
same,feed intake per cage,"[11]; day 3, cage of n=3",9 g
same,feed intake per cage,"[11]; day 4, cage of n=3",11.5 g
same,feed intake per cage,"[11]; day 5, cage of n=3",15.5 g
same,feed intake per cage,"[11]; day 6, cage of n=3",13.5 g
same,feed intake per cage,"[11]; day 7, cage of n=3",14 g
same,feed intake per cage,"[11]; day 8, cage of n=3",14 g
same,feed intake per cage,"[11]; day 9, cage of n=3",15 g
same,feed intake per cage,"[11]; day 10, cage of n=3",15 g
CC(C)OC(=O)NNC(=O)c1ccncc1.Cl [prodrug 1d],"chemical stability, pH (7.6): percentage of parent remaining",[1],100.0%
same,liver tissue levels of pyridoxal and pyridoxal-5′-phosphate,[2],comparable
same,logD,[3],0.2
same,solubility at 24 h,[4]; Tris HCl buffer,18.6 mg/mL
same,AUC,[5]; [18],18 ± 1 ng·h/mL
same,Cmax,[5]; [18],90 ± 5 ng/mL
same,Tmax,[5]; [18],4.8 min
same,Vd,[5]; [18],21 L/kg
same,clearance,[5]; [18],1780 mL/min/kg
same,concentration at 0.33 h,[5]; [18],53.6 ng/mL
same,plasma concentration of released AcINH (mean),"[5]; single IV dose, 0.33 h",BLQ
same,plasma concentration of released INA (mean),"[5]; single IV dose, 0.33 h",BLQ
same,plasma concentration of released AcINH (mean),"[5]; single IV dose, 1 h",BLQ
same,plasma concentration of released INA (mean),"[5]; single IV dose, 1 h",BLQ
same,plasma concentration of unchanged 1d (mean),"[5]; single IV dose, 1 h",BLQ
same,plasma concentration of released AcINH (mean),"[5]; single IV dose, 2 h",BLQ
same,plasma concentration of released INA (mean),"[5]; single IV dose, 2 h",BLQ
same,plasma concentration of unchanged 1d (mean),"[5]; single IV dose, 2 h",BLQ
same,plasma concentration of released AcINH (mean),"[5]; single IV dose, 4 h",BLQ
same,plasma concentration of released INA (mean),"[5]; single IV dose, 4 h",BLQ
same,plasma concentration of unchanged 1d (mean),"[5]; single IV dose, 4 h",BLQ
same,plasma concentration of released AcINH (mean),"[5]; single IV dose, 6 h",BLQ
same,plasma concentration of released INA (mean),"[5]; single IV dose, 6 h",BLQ
same,plasma concentration of unchanged 1d (mean),"[5]; single IV dose, 6 h",BLQ
same,plasma concentration of released AcINH (mean),"[5]; single IV dose, 8 h",BLQ
same,plasma concentration of released INA (mean),"[5]; single IV dose, 8 h",BLQ
same,plasma concentration of unchanged 1d (mean),"[5]; single IV dose, 8 h",BLQ
same,plasma concentration of released AcINH (mean),"[5]; single IV dose, 24 h",BLQ
same,plasma concentration of released INA (mean),"[5]; single IV dose, 24 h",BLQ
same,plasma concentration of unchanged 1d (mean),"[5]; single IV dose, 24 h",BLQ
same,"AUC5m–24h, released AcINH","[5]; single IV dose, INH 1 mg/kg or molar equivalent",no AcINH was observed and BLQ
same,"eAUC0–20h in stomach homogenate, prodrug",[12]; 20 h,"433,081 ng·h/mL"
same,"percentage of prodrug remaining after 20 h of incubation, stomach homogenate",[12]; ex vivo,3%
same,plasma concentration of in vivo released Hz,[6],BLQ
same,plasma level of released Hz,[6],BLQ
same,concentration at 2 h,[7]; 1 mg/kg,332 ng/mL
same,concentration at 6 h,[7]; 1 mg/kg,146 ng/mL
same,concentration at 2 h,[7]; 3 mg/kg,578 ng/mL
same,concentration at 6 h,[7]; 3 mg/kg,151 ng/mL
same,concentration at 2 h,[7]; 10 mg/kg,2030 ng/mL
same,concentration at 6 h,[7]; 10 mg/kg,217 ng/mL
same,eAUC20m–6h (unchanged 1d),[7]; single oral dose 1 mg/kg,2916 ± 1005 ng·h/mL
same,eAUC20m–6h (unchanged 1d),[7]; single oral dose 3 mg/kg,5799 ± 858 ng·h/mL
same,eAUC20m–6h (unchanged 1d),[7]; single oral dose 10 mg/kg,"20,138 ± 2821 ng·h/mL"
same,"percentage of 1d remaining after 2 h of incubation, mouse liver homogenate",[13]; 37 °C,27%
same,"eAUC5–120m of 1d, mouse liver homogenate",[13]; 2 h incubation,"261,525 ng·h/mL"
same,"% of prodrug remaining at 20 h, human plasma","[14]; 37 °C, ex vivo",40.1%
same,"eAUC20m–20h in human plasma, prodrug",[14]; 20 h ex vivo incubation,1196 ± 308 ng·h/mL
same,"eAUC0–20h in intestinal homogenate, prodrug",[15]; 20 h,"728,889 ng·h/mL"
same,"percentage of prodrug remaining after 20 h of incubation, intestine homogenate",[15]; ex vivo,87%
same,concentration at 0.33 h,[8]; [19],18700 ng/mL
same,concentration at 1 h,[8]; [19],10400 ng/mL
same,concentration at 2 h,[8]; [19],4620 ng/mL
same,concentration at 4 h,[8]; [19],942 ng/mL
same,concentration at 6 h,[8]; [19],347 ng/mL
same,concentration at 24 h,[8]; [19],152 ng/mL
same,plasma concentration of released AcINH (mean),"[8]; single oral dose, 0.33 h",BLQ
same,plasma concentration of released AcINH (mean),"[8]; single oral dose, 1 h",BLQ
same,plasma concentration of released AcINH (mean),"[8]; single oral dose, 2 h",BLQ
same,plasma concentration of released AcINH (mean),"[8]; single oral dose, 4 h",BLQ
same,plasma concentration of released INA (mean),"[8]; single oral dose, 4 h",BLQ
same,plasma concentration of free INH (mean),"[8]; single oral dose, 6 h",BLQ
same,plasma concentration of released AcINH (mean),"[8]; single oral dose, 6 h",BLQ
same,plasma concentration of released INA (mean),"[8]; single oral dose, 6 h",BLQ
same,plasma concentration of free INH (mean),"[8]; single oral dose, 24 h",BLQ
same,plasma concentration of released AcINH (mean),"[8]; single oral dose, 24 h",BLQ
same,plasma concentration of released INA (mean),"[8]; single oral dose, 24 h",BLQ
same,"AUC5m–24h, released AcINH","[8]; single oral dose, INH 10 mg/kg or molar equivalent",BLQ
same,"Vd, unchanged prodrug","[8]; single oral dose, molar equivalent of 10 mg/kg INH",1.121 ± 0.345 L/kg
same,plasma level of AcHz formed in vivo,[8]; single oral dose,BLQ
same,plasma concentration of AcINH at 20 min,[16],BLQ
same,plasma eAUC20m–120m (AcINH),"[16]; n=3, 10 mg/kg",BLQ and below the limit of quantification and BLQ ^d
same,"chemical stability, DMSO: percentage of parent remaining",[9],100.0%
same,"percentage of 1d/INH remaining after 2 h of incubation, human liver microsomes",[10],77%
same,"eAUC0–120m of 1d, human liver microsomes",[10]; 2 h incubation,"80,176 ng·h/mL"
same,eAUC20m–6h (AcHz),[11],BLQ ^d
same,feed intake per cage,"[11]; day 0, cage of n=3",11 g
same,feed intake per cage,"[11]; day 1, cage of n=3",11.5 g
same,feed intake per cage,"[11]; day 2, cage of n=3",10.5 g
same,feed intake per cage,"[11]; day 3, cage of n=3",10 g
same,feed intake per cage,"[11]; day 4, cage of n=3",11 g
same,feed intake per cage,"[11]; day 5, cage of n=3",14.5 g
same,feed intake per cage,"[11]; day 6, cage of n=3",12 g
same,feed intake per cage,"[11]; day 7, cage of n=3",12 g
same,feed intake per cage,"[11]; day 8, cage of n=3",13.5 g
same,feed intake per cage,"[11]; day 9, cage of n=3",12.5 g
same,feed intake per cage,"[11]; day 10, cage of n=3",12.5 g
same,"% of prodrug remaining at 20 h, mice plasma","[17]; 37 °C, ex vivo",23.8%
same,"eAUC20m–20h in mice plasma, prodrug",[17]; 20 h ex vivo incubation,987 ± 154 ng·h/mL
